Measurements taken from patent US9169463B2, “Stem cell for therapeutic use which is derived from human monocyte, and method for inducing same” (OTSUKA PHARMACEUTICAL CO., LTD., priority 2008, dated 2015).

test system: peripheral blood monocytes; assay: Comparison of stem cell-inducing activities of various gangliosides (viable cells, CellTiter-Glo); assay type: cell-based, human; settings: gangliosides 100 μg/ml, rhM-CSF 25 ng/ml, second week of culture
Description: More specifically, gangliosides were added to a culture medium at a final concentration of 100 μg/ml, and peripheral blood monocytes were cultured.
rhM-CSF was added thereto at a final concentration of 25 ng/ml. Then, the number of viable cells in the second week of culture was quantified as luciferase activity using CellTiter-Glo (Promega).

Row | Substance | stem cell-inducing activity (number of viable cells as luciferase activity, FIG. 3)
1 | aNeu5Ac(2-3)bDGalp(1-3)bDGalNAc(1-4)[aNeu5Ac(2-3)]bDGalp(1-4)bDGlcp(1-1)Cer [GD1a] | equally-strong stem cell-inducing activities
2 | aNeu5Ac(2-3)bDGalp(1-3)bDGalNAc(1-4)[aNeu5Ac(2-8)aNeu5Ac(2-3)]bDGalp(1-4)bDGlcp(1-1)Cer [GT1b] | equally-strong stem cell-inducing activities
3 | bDGalp(1-3)bDGalNAc[aNeu5Ac(2-3)]bDGalp(1-4)bDGlcp(1-1)Cer [GM1] | equally-strong stem cell-inducing activities
